The subject of data set [1] is C. albicans. Nature of the data set: Planktonic MIC, CLSI guidelines. The format is cell-based, Candida albicans. Here is the method: Minimum inhibitory concentrations were determined using CLSI guidelines (Beattie & Krysan, 2021; Wiederhold, 2021). All yeasts were cultured overnight in 3 mL YPD at 30° C., then washed twice in sterile PBS. Two-fold serial dilutions of each compound were prepared in RMPI+MOPS pH 7 (Gibco RPMI 1640 with L-glutamine [11875-093] and 0.165M 352 MOPS), then 1×10^3 cells were added per well. Plates were incubated at 37° C. for 24 hours (C. albicans and S. cerevisiae) or 72 hours (C. neoformans). For A. fumigatus and F. oxysporum wells were inoculated with 1.25×10^4 conidia. Plates were incubated at 37° C. for 48 hours for A. fumigatus and 72 hours for F. oxysporum. All MICs are defined as the well with complete growth inhibition as determined by visual inspection with the exception of MICs of fluconazole against C. albicans where the MIC is defined as at least 50% reduction in growth compared to the control.

The next data set deals with S. aureus. In words: Antibacterial MIC. The format is cell-based. As to conditions: Staphylococcus aureus; strain Newman.
Data set [2] deals with C. albicans. Nature of the data set: Checkerboard assay with clinical antifungals (FICI). The class given is cell-based, Candida albicans. As to conditions: with fluconazole. Here is the method:
To determine if compounds interacted with clinically used antifungal drugs, checkerboard assays were performed and fractional inhibitory concentration indices were determined. […] The FICI for compound B and fluconazole is 8.25 due to the 8-fold increase in fluconazole concentration in the combination; however, the concentration of compound B at FIC is reduced by 4-fold relative to compound B as a single agent (Table 3).

Data set [3] deals with C. albicans SC5314 biofilms. Nature of the data set: Biofilm phase antifungal activity assay (XTT reduction). The format is cell-based, Candida albicans. Here is the method: These assays were performed as previously described (Mao et al., 2020; Ramage et al., 2001). C. albicans and C. auris, overnight cultures were washed in sterile PBS and adjusted to 1×10^6 CFU/mL in RPMI+MOPS pH 7. 100 μL cells were added to each well and incubated at 37° C. for 24 hours. A two-fold dilution series of the compounds was prepared in RPMI+MOPS with equal vehicle concentrations. Media was removed and biofilms were gently washed with PBS, then 200 μL of each drug dilution was added to wells and plates were incubated at 37° C. for an additional 24 hours. Media was removed and biofilms were gently washed with PBS, then 100 μL of XTT solution (0.83 mg/mL XTT sodium salt [Sigma, Cat #X4626]+32 μg/mL PMS [Sigma, Cat #P9625] in PBS) was added to each well. Plates were incubated at 37° C. for 30 minutes, then the absorbance was measured at 490 nm.
The metabolic activity of the biofilms was then assayed using the standard XXT reduction assay (Ramage et al., 2001). […] The biofilm activity of compound A was reduced by 4-fold relative to planktonic growth (MIC 4 μg/mL, Table 2).

Another data set concerns HepG2 cells. In words: Mammalian cell culture toxicity assay (LDH release and XTT). The class given is cell-based, human. Here is the method: HepG2 cells (ATCC, #) were maintained and cultured in HepG2 media (DMEM (Gibco, Cat #11965-092) with 5% FBS, 20 mM Glutamine, and Penicillin/Streptomycin) at 37° C. with 5% CO2. Cells were seeded in 96-well plates at a density of 1.25×10^4 cells/well and incubated overnight at 37° C. with 5% CO2, then media was removed and replaced with media containing a two-fold dilution series of compounds with equal DMSO concentrations across all wells including no compound controls. Cells were incubated for an additional 24 hours. Supernatant was removed and used to quantify lactate dehydrogenase release using the CyQuant LDH assay kit (Invitrogen, Cat #C20300) following the manufacturer's directions. LDH signal was normalized to a max lysis control. The remaining cells were then used to quantify cellular metabolism by XTT. Briefly, cells were washed, then 0.9 mg/mL XTT (Sigma, CAT #X4626)+320 μg/mL PMS ([…] methosulfate; Sigma, Cat #P9625) in HepG2 media was added to each well. Plates were incubated at 37° C., with 5% CO2 for 2 hours, then absorbance was measured at 490 nm.
(LDH leaks from cells whose membrane has failed.)

For the next data set, the system named is C. albicans SC5314. In words: Rat model of Candida albicans vascular catheter infection. The class given is in vivo. The method, then: C. albicans biofilm growth during infection of implanted medical devices was measured using an external jugular-vein, rat-catheter infection model (Nett et al., 2012). Briefly, a 1×10^6 cells/ml inoculum for each strain or strain combination was allowed to grow on an internal jugular catheter placed in a pathogen-free female rat (16-week old, 400 g) for 24 hours. After this period, the catheter volumes were removed and the catheters were flushed with 0.9% NaCl. The biofilms were dislodged by sonication and vortexing. Viable cell counts were determined by dilution plating. Three replicates were performed for each strain.
After a 24 hours biofilm formation phase, the devices were removed, sectioned to expose the intraluminal surface, and processed for SEM imaging. Briefly, one milliliter fixative (4% formaldehyde and 1% glutaraldehyde in PBS) was added to each catheter tube and tubes were fixed at 4° C. overnight. Catheters were then washed with PBS prior to incubation in 1% OsO4 for 30 minutes. Samples were then serially dehydrated in ethanol (30-100%). Critical point drying was used to completely dehydrate the samples prior to palladium-gold coating. Samples were imaged on a SEM LEO 1530, with Adobe Photoshop 2022 (v. 23.2.2) used for image compilation.
One potential approach to managing central venous catheter infections is to treat the lumen of the catheter with an anti-infective solution that is locked within the catheter and not introduced into the patient (Chandra et al., 2018). This strategy is most often applied to catheters infected with bacteria but has been proposed for fungal infections as well (Pappas et al., 2016; Mermel et al., 2009). To test the efficacy of KAPs in this setting, a rat model of C. albicans venous catheter infection was employed (Nett et al., 2023). The catheter was infected with C. albicans SC5314 and, on post-infection day 1, treated with A (8 μg/mL solution within catheter) or vehicle. After 24 hours, the catheter was removed and processed for fungal burden and scanning electron microscopy. […]

Data set [4] has as its system C. albicans. Nature of the data set: Planktonic MIC, CLSI guidelines. The format is cell-based, Candida albicans. As to conditions: data not shown.
The mark [5] stands for this setting: 8 μg/mL solution within catheter, 24 hours.

We go through one compound from US20260274828A1, “BROAD SPECTRUM ANTIFUNGAL KETO-ALKYL-PYRIDINIUM COMPOUNDS” (priority 2023, published 2026).

Broadly, the MIC is the smallest concentration in the dilution series that meets the test's criterion for growth inhibition. As a reminder, the IC50 is the concentration at which inhibition is half-maximal.

Where two headings read alike, the source gives them in different places. Where only a bound is given, the exact number is not on record here.

As for `Nc1cc[n+](CC(=O)c2ccc3c(c2)OC(c2ccccc2)(c2ccccc2)O3)cc1.[Cl-]` [Compound A], the MIC turned out to be 4 µg/mL in the data set with C. albicans [1] (Candida albicans, strain SC5314, read-out: MIC); 4 µg/mL in the data set with C. albicans [1] (Candida albicans, strain TWO #15, fluconazole-resistant, read-out: MIC); 4 µg/mL with C. albicans [1] (strain TWO #17, fluconazole-resistant); 32 µg/mL against S. aureus. The “interaction with clinical antifungal” value with C. albicans [2] is “antagonistic”. Also, in data set [3] (Candida albicans, SC5314, established 24 h biofilm, treated 24 h, XTT, read-out: biofilm metabolic activity IC50), the IC50 is 18.4 µg/mL. The “reduction of biofilm activity relative to planktonic growth” value in data set [3] (IC50 versus planktonic MIC) is given as 4 fold. The “LD50, cell lysis assay” value with HepG2 cells (HepG2, LDH release, 24 h) amounted to 9 µg/mL. Also, the “LD50, metabolic activity assay” value in the data set with HepG2 cells (HepG2, XTT, 24 h) turned out to be 20 µg/mL. The “LD50, toxicity against human cell lines” value with HepG2 cells (readout not given) worked out at 9 µg/mL. In addition, the “extent of remaining biofilm (scanning electron microscopy)” value in the data set with C. albicans SC5314 (setting [5]) is “dramatic reduction”. For the same compound, in the data set with C. albicans SC5314 (setting [5]), the “reduction in fungal burden relative to vehicle-treated catheters” value is more than 1 log10. Further, in the data set on C. albicans SC5314 (8 μg/mL, 24 hr), the “fungal burden of the catheter” value is “significantly reduced”. In the data set on C. albicans [4], the “change in MIC with glycerol instead of glucose as carbon source” value was “not observed”.
